What was measured:
PCTK2 = target: T1, PCTK2 (Homo sapiens, UniProt Q00537); assay: KINOMEscan kinase profiling; assay type: binding; conditions: read-out: %Inhibition by 10 μM SPA70
T1 construct: purchased DiscoverX (Ambit Biosciences) KINOMEscan
In short: (§1)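 KINOMEscan profiling followed a published protocol. Kinases whose inhibition exceeded a set cut-off were then tested in a dilution series beginning at 30 µM.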

IGF1R = target: T2, IGF1R (Homo sapiens, UniProt P08069); assay: KINOMEscan kinase profiling; assay type: binding; conditions: read-out: %Inhibition by 10 μM SPA70
T2 construct: purchased DiscoverX (Ambit Biosciences) KINOMEscan
T2 sequence (P08069 31-1367): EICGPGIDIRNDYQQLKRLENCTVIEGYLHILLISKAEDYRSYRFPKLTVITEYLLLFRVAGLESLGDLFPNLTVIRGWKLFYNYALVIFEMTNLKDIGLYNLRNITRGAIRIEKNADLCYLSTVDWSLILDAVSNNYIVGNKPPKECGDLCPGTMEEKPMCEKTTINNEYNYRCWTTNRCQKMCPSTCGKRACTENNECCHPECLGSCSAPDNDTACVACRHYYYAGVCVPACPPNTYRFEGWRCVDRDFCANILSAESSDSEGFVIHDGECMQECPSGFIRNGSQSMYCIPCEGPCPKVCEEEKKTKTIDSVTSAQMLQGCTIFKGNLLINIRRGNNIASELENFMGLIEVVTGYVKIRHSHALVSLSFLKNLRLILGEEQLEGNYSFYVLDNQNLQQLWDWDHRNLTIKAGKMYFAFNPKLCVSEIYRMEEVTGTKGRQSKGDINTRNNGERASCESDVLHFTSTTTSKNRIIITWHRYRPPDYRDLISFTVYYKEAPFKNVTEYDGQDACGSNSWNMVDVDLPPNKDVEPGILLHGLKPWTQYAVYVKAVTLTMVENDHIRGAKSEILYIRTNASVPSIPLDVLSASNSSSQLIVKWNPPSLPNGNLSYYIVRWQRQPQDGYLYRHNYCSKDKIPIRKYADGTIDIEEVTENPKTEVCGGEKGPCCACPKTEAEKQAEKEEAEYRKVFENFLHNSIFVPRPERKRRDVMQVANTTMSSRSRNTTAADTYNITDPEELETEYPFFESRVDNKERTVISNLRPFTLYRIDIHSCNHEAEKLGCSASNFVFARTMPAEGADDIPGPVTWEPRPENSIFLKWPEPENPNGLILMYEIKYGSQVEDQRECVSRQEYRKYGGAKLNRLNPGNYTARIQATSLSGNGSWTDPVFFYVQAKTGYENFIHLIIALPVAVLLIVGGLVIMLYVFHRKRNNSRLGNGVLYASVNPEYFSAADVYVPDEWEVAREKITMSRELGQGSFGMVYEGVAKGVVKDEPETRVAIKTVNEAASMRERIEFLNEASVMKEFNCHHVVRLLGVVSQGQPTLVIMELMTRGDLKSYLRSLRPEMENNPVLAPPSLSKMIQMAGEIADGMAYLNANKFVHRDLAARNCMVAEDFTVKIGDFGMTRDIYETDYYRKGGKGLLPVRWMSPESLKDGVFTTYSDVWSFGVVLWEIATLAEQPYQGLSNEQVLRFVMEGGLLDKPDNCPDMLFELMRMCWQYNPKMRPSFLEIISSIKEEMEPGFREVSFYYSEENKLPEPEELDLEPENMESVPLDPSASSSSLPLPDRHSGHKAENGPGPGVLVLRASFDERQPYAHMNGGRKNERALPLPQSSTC
In short: as §1

CAMK2B = target: T3, CAMK2B (Homo sapiens, UniProt Q13554); assay: KINOMEscan kinase profiling; assay type: binding; conditions: read-out: %Inhibition by 10 μM SPA70
T3 construct: purchased DiscoverX (Ambit Biosciences) KINOMEscan
T3 sequence (Q13554 whole entry): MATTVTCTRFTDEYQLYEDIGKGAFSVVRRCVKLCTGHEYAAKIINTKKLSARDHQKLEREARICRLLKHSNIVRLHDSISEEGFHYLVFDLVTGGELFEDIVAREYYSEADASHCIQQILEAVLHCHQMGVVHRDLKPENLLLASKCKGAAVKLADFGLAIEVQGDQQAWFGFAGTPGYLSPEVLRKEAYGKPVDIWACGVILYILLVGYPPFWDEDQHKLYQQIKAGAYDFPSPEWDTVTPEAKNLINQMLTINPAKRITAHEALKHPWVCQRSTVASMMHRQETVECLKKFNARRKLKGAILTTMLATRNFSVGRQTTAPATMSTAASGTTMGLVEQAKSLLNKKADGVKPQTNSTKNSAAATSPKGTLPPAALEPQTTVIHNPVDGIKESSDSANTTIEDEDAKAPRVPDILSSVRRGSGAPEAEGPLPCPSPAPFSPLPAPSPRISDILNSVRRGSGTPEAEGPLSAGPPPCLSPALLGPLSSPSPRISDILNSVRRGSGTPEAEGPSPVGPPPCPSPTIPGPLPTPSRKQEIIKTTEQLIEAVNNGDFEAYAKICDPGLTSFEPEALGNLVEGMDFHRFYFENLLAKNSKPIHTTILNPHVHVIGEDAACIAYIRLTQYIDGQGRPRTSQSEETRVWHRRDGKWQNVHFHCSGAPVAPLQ
In short: as §1

STK36 = target: T4, STK36 (Homo sapiens, UniProt Q9NRP7); assay: KINOMEscan kinase profiling; assay type: binding; conditions: read-out: %Inhibition by 10 μM SPA70
T4 construct: purchased DiscoverX (Ambit Biosciences) KINOMEscan
In short: as §1

HIPK3 = target: T5, HIPK3 (Homo sapiens, UniProt Q9H422); assay: KINOMEscan kinase profiling; assay type: binding; conditions: read-out: %Inhibition by 10 μM SPA70
T5 construct: purchased DiscoverX (Ambit Biosciences) KINOMEscan
In short: as §1

PIP5K1A = target: T6, PIP5K1A (Homo sapiens, UniProt Q99755); assay: KINOMEscan kinase profiling; assay type: binding; conditions: read-out: %Inhibition by 10 μM SPA70
T6 construct: purchased DiscoverX (Ambit Biosciences) KINOMEscan
In short: as §1

RIPK4 = target: T7, RIPK4 (Homo sapiens, UniProt P57078); assay: KINOMEscan kinase profiling; assay type: binding; conditions: read-out: %Inhibition by 10 μM SPA70
T7 construct: purchased DiscoverX (Ambit Biosciences) KINOMEscan
In short: as §1

GRK7 = target: T8, GRK7 (Homo sapiens, UniProt Q8WTQ7); assay: KINOMEscan kinase profiling; assay type: binding; conditions: read-out: %Inhibition by 10 μM SPA70
T8 construct: purchased DiscoverX (Ambit Biosciences) KINOMEscan
In short: as §1

TNK2 = target: T9, TNK2 (Homo sapiens, UniProt Q07912); assay: KINOMEscan kinase profiling; assay type: binding; conditions: read-out: %Inhibition by 10 μM SPA70
T9 construct: purchased DiscoverX (Ambit Biosciences) KINOMEscan
In short: as §1

AMPK-alpha2 = target: T10, AMPK-alpha2 (Homo sapiens, UniProt P54646); assay: KINOMEscan kinase profiling; assay type: binding; conditions: read-out: %Inhibition by 10 μM SPA70
T10 construct: purchased DiscoverX (Ambit Biosciences) KINOMEscan
In short: as §1

YES = target: T11, YES (Homo sapiens, UniProt P07947); assay: KINOMEscan kinase profiling; assay type: binding; conditions: read-out: %Inhibition by 10 μM SPA70
T11 construct: purchased DiscoverX (Ambit Biosciences) KINOMEscan
In short: as §1

[1] = target: T12, JAK2(JH1domain-catalytic) (Homo sapiens, UniProt O60674); assay: KINOMEscan kinase profiling; assay type: binding
T12 construct: JAK2(JH1domain-catalytic); purchased DiscoverX (Ambit Biosciences) KINOMEscan
T12 sequence (O60674 849-1132 limits assumed): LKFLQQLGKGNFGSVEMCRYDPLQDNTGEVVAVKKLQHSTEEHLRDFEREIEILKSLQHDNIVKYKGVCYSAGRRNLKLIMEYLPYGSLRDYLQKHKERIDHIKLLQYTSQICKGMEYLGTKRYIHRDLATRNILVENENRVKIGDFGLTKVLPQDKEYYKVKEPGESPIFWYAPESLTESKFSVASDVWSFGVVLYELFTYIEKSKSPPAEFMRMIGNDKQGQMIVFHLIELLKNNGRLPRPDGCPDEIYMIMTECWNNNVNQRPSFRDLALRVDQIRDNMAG
In short: as §1

EPHA8 = target: T13, EPHA8 (Homo sapiens, UniProt P29322); assay: KINOMEscan kinase profiling; assay type: binding; conditions: read-out: %Inhibition by 10 μM SPA70
T13 construct: purchased DiscoverX (Ambit Biosciences) KINOMEscan
T13 sequence (P29322 28-1005): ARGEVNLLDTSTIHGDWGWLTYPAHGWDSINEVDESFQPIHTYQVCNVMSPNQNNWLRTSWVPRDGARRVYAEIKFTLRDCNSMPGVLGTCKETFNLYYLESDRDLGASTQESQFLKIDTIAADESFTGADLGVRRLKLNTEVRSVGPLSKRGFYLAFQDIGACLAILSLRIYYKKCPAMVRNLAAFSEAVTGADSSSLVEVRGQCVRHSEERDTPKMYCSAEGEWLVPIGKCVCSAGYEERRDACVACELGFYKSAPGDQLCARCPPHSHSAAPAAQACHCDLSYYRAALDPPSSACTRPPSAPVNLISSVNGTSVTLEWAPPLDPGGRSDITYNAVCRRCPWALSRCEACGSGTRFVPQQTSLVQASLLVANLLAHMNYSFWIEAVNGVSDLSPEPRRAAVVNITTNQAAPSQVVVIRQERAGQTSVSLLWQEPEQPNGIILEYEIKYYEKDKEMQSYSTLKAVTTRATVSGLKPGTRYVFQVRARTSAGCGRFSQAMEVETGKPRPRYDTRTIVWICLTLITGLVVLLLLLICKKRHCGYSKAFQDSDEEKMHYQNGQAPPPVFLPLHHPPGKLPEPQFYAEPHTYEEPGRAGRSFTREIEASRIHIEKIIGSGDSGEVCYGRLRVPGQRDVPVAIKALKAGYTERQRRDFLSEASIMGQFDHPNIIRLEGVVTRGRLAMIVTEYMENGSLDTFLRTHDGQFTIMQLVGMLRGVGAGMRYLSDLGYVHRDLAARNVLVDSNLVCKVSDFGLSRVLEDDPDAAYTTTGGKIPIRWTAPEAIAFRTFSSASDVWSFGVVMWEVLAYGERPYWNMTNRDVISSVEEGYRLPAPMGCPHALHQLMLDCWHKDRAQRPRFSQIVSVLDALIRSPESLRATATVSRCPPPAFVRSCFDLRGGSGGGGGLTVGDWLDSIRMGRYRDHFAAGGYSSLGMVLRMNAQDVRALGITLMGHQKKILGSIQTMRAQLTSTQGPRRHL
In short: as §1

PIK3CA = target: T14, PIK3CA (Homo sapiens, UniProt P42336); assay: KINOMEscan kinase profiling; assay type: binding; conditions: read-out: %Inhibition by 10 μM SPA70
T14 construct: purchased DiscoverX (Ambit Biosciences) KINOMEscan
In short: as §1

MYLK2 = target: T15, MYLK2 (Homo sapiens, UniProt Q9H1R3); assay: KINOMEscan kinase profiling; assay type: binding; conditions: read-out: %Inhibition by 10 μM SPA70
T15 construct: purchased DiscoverX (Ambit Biosciences) KINOMEscan
In short: as §1

BMX = target: T16, BMX (Homo sapiens, UniProt P51813); assay: KINOMEscan kinase profiling; assay type: binding; conditions: read-out: %Inhibition by 10 μM SPA70
T16 construct: purchased DiscoverX (Ambit Biosciences) KINOMEscan
In short: as §1

CAMK2D = target: T17, CAMK2D (Homo sapiens, UniProt Q13557); assay: KINOMEscan kinase profiling; assay type: binding; conditions: read-out: %Inhibition by 10 μM SPA70
T17 construct: purchased DiscoverX (Ambit Biosciences) KINOMEscan
In short: as §1

ACVR1 = target: T18, ACVR1 (Homo sapiens, UniProt Q04771); assay: KINOMEscan kinase profiling; assay type: binding; conditions: read-out: %Inhibition by 10 μM SPA70
T18 construct: purchased DiscoverX (Ambit Biosciences) KINOMEscan
In short: as §1

[2] = target: T19, RPS6KA4(Kin.Dom.1-N-terminal) (Homo sapiens, UniProt O75676); assay: KINOMEscan kinase profiling; assay type: binding; conditions: read-out: %Inhibition by 10 μM SPA70
T19 construct: RPS6KA4(Kin.Dom.1-N-terminal); purchased DiscoverX (Ambit Biosciences) KINOMEscan
T19 sequence (O75676 1-371 limits assumed): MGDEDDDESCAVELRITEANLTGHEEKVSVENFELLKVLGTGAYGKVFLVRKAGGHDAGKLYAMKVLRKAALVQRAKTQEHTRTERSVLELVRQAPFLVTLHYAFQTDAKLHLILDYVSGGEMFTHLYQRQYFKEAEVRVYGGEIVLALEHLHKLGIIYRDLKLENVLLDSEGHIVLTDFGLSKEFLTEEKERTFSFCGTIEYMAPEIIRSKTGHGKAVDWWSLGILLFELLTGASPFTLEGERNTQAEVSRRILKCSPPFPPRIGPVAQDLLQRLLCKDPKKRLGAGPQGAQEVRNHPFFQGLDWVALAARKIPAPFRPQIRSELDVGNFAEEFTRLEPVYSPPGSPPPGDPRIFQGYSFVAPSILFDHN
In short: as §1

STK16 = target: T20, STK16 (Homo sapiens, UniProt O75716); assay: KINOMEscan kinase profiling; assay type: binding; conditions: read-out: %Inhibition by 10 μM SPA70
T20 construct: purchased DiscoverX (Ambit Biosciences) KINOMEscan
In short: as §1

PIP5K2B = target: T21, PIP5K2B (Homo sapiens, UniProt P78356); assay: KINOMEscan kinase profiling; assay type: binding; conditions: read-out: %Inhibition by 10 μM SPA70
T21 construct: purchased DiscoverX (Ambit Biosciences) KINOMEscan
In short: as §1

PHKG1 = target: T22, PHKG1 (Homo sapiens, UniProt Q16816); assay: KINOMEscan kinase profiling; assay type: binding; conditions: read-out: %Inhibition by 10 μM SPA70
T22 construct: purchased DiscoverX (Ambit Biosciences) KINOMEscan
In short: as §1

EPHB3 = target: T23, EPHB3 (Homo sapiens, UniProt P54753); assay: KINOMEscan kinase profiling; assay type: binding; conditions: read-out: %Inhibition by 10 μM SPA70
T23 construct: purchased DiscoverX (Ambit Biosciences) KINOMEscan
In short: as §1

INSRR = target: T24, INSRR (Homo sapiens, UniProt P14616); assay: KINOMEscan kinase profiling; assay type: binding; conditions: read-out: %Inhibition by 10 μM SPA70
T24 construct: purchased DiscoverX (Ambit Biosciences) KINOMEscan
T24 sequence (P14616 27-1297): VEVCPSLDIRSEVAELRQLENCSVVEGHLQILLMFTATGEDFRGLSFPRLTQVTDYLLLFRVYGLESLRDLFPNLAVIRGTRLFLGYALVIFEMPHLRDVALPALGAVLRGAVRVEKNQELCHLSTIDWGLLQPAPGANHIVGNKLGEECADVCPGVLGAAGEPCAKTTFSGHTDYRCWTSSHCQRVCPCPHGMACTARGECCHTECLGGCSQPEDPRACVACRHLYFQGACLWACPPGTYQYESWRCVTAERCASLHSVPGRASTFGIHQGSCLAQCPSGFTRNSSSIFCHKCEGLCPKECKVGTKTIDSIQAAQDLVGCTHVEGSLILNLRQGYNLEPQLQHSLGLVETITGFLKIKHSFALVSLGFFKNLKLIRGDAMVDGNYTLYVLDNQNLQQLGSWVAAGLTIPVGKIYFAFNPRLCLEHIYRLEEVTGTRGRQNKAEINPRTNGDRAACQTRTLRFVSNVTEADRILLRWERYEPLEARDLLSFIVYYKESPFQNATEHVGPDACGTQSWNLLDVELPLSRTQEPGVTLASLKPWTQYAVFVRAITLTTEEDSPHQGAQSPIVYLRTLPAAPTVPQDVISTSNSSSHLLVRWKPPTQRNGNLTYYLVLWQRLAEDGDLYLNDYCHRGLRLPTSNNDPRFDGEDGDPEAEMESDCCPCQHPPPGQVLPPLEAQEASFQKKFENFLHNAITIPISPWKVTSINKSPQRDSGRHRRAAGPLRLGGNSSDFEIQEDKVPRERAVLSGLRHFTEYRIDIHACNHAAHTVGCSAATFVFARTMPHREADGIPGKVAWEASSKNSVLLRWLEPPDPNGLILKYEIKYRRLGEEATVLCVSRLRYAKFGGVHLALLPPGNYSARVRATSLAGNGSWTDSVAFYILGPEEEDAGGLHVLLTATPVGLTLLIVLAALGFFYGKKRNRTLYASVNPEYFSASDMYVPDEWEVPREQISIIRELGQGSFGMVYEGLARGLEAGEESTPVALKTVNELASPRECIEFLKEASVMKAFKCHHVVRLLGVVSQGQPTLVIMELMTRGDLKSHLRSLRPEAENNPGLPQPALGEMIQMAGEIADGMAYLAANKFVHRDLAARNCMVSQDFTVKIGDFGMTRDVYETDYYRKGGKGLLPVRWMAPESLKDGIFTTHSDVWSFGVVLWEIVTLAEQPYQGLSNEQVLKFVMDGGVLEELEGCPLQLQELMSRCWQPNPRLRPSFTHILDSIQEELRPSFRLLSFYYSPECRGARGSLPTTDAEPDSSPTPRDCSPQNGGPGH
In short: as §1

NDR1 = target: T25, NDR1 (Homo sapiens, UniProt Q15208); assay: KINOMEscan kinase profiling; assay type: binding; conditions: read-out: %Inhibition by 10 μM SPA70
T25 construct: purchased DiscoverX (Ambit Biosciences) KINOMEscan
In short: as §1

HIPK1 = target: T26, HIPK1 (Homo sapiens, UniProt Q86Z02); assay: KINOMEscan kinase profiling; assay type: binding; conditions: read-out: %Inhibition by 10 μM SPA70
T26 construct: purchased DiscoverX (Ambit Biosciences) KINOMEscan
In short: as §1

NEK3 = target: T27, NEK3 (Homo sapiens, UniProt P51956); assay: KINOMEscan kinase profiling; assay type: binding; conditions: read-out: %Inhibition by 10 μM SPA70
T27 construct: purchased DiscoverX (Ambit Biosciences) KINOMEscan
In short: as §1

SNU-C4 cells = assay: CellTiter-Glo cytotoxicity assay; conditions: 10 µM SPA70
Method: For the LS180, SNU-C4 and LS1034 cytotoxicity assays, cells were seeded in a 96-well plate (Corning) at 4000 cells per well. […] Cell viability was assessed using the CellTiter-Glo assay.

With `COc1ccc(OC)c(-n2nnc(S(=O)(=O)c3ccc(C(C)(C)C)cc3)c2C)c1` [SPA70] as the compound, how does the inhibition at 10 µM (PCTK2) read?
The inhibition at 10 µM was 0%.

And the inhibition at 10 µM (IGF1R)?
Its inhibition at 10 µM is 0%.

And the inhibition at 10 µM (CAMK2B)?
The inhibition at 10 µM was 13%.

And the inhibition at 10 µM (STK36)?
Its inhibition at 10 µM is 0%.

And the inhibition at 10 µM (HIPK3)?
The inhibition at 10 µM was 10%.

And the inhibition at 10 µM (PIP5K1A)?
The inhibition at 10 µM was 0%.

And the inhibition at 10 µM (RIPK4)?
Its inhibition at 10 µM is 0%.

And the inhibition at 10 µM (GRK7)?
The inhibition at 10 µM was 0%.

And the inhibition at 10 µM (TNK2)?
The inhibition at 10 µM was 0%.

What about the inhibition at 10 µM (AMPK-alpha2) of the same compound?
The inhibition at 10 µM was 9%.

What about the inhibition at 10 µM (YES) of the same compound?
The inhibition at 10 µM was 2%.

What about the “%Inhibition by 10 μM SPA70” value [1] of the same compound?
Its value is 33%.

And the inhibition at 10 µM (EPHA8)?
Its inhibition at 10 µM is 13%.

And the inhibition at 10 µM (PIK3CA)?
The inhibition at 10 µM was 0%.

What about the inhibition at 10 µM (MYLK2) of the same compound?
The inhibition at 10 µM was 0%.

And the inhibition at 10 µM (BMX)?
The inhibition at 10 µM was 0%.

What about the inhibition at 10 µM (CAMK2D) of the same compound?
The inhibition at 10 µM was 0%.

And the inhibition at 10 µM (ACVR1)?
The inhibition at 10 µM was 0%.

What about the inhibition at 10 µM [2] of the same compound?
Its inhibition at 10 µM is 0%.

What about the inhibition at 10 µM (STK16) of the same compound?
The inhibition at 10 µM was 0%.

What about the inhibition at 10 µM (PIP5K2B) of the same compound?
Its inhibition at 10 µM is 0%.

And the inhibition at 10 µM (PHKG1)?
The inhibition at 10 µM was 0%.

What about the inhibition at 10 µM (EPHB3) of the same compound?
Its inhibition at 10 µM is 0%.

And the inhibition at 10 µM (INSRR)?
The inhibition at 10 µM was 0%.

What about the inhibition at 10 µM (NDR1) of the same compound?
The inhibition at 10 µM was 0%.

What about the inhibition at 10 µM (HIPK1) of the same compound?
Its inhibition at 10 µM is 32%.

What about the inhibition at 10 µM (NEK3) of the same compound?
The inhibition at 10 µM was 0%.

What about the “Sensitization of SNU-C4 cells to paclitaxel and vincristine” value (SNU-C4 cells) of the same compound?
Its value is “sensitizing the cells to paclitaxel and vincristine”.
